Assay results reported in EP4043466B1, “PRC2 INHIBITORS” (Mirati Therapeutics, Inc., priority 2018, dated 2019).

Assays:
[1] = target: purified human, His-tagged PRC2 complex (Homo sapiens, UniProt O75530+Q15910); test: Hot Spot HMT assay: inhibition of PRC2 enzymatic activity (transfer of tritiated methyl from SAM to core histone, filter binding); type: biochemical; conditions: Inhibition of PRC2-mediated enzymatic activity; 10 nM PRC2 complex, 0.05 mg/ml core histone H3, 1 uM 3H-SAM, 1 hr at 30°C
Method in brief: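 Serial compound dilutions starting at 1.0 µM were pre-incubated 20 min at 30°C with 10 nM complex (His-EZH2, Flag-EED, His-SUZ12, His-AEBP2, His-RbAp48) and 0.05 mg/ml core H3. Reaction ran 1 hr at 30°C after adding 1 uM [3H]-SAM; scintillation counting followed filtration.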

[2] = test system: PRC2-mediated histone H3 methylation; test: Tri-Methyl Histone H3 (Lys 27) Sandwich ELISA in Pfeiffer cells: inhibition of PRC2-mediated histone H3 methylation; type: cell-based, human; conditions: Homo sapiens; Inhibition of EZH2-mediated histone H3 trimethylation; Pfeiffer cells (EZH2 A677G), 96 hours incubation
From the text: The Pfeiffer cell line was established from a […] from a patient having metastatic diffuse large B-cell lymphoma (DLBCL). This cell line expresses a mutant form of the EZH2 enzyme (A677G) that results in enhanced EZH2 activity leading to increased methylation of histone H3 Lys27. Increased trimethylation of histone H3 Lys27 is believed to be implicated in tumorgenesis and poor clinical prognosis in lymphomas (McCabe et al., (2012) Nature 492:108-112).
Inhibition of PRC2-mediated histone H3 methylation by compounds of Formula (I) was measured by ELISA using a Tri-Methyl Histone H3 (Lys 27) Sandwich ELISA Kit (Cell Signaling Tech #7866C) in accordance with the manufacturer's instructions. Briefly, Pfeiffer cells were cultured in RPMI medium supplemented with 10% fetal bovine serum and 1% penicillin and 1% streptomycin in 96 well culture plates at 37°C to a density of 8000 cells/90µl/well and the cells were harvested. A series of 3-fold serial dilutions of each test compound of Formula (I) were prepared in RPMI medium and added to the cells at final concentrations ranging from 1µM to 0.15 nM. The plates were incubated at 37°C for 96 hours.
After incubation, the cells were pelleted by centrifugation in a pre-cooled 4°C rotor at 1, 100 rpm for 10 min and the supernatant was removed by aspiration. The cell pellet was resuspended in 55µl of Lysis Buffer (0.4M HCl) and incubated on ice with periodic shaking for 30 minutes. The lysed cells were subjected to centrifugation at 4, 200 rpm for 10 min at 4°C and the supernatant containing acid-soluble proteins was collected and the remainder discarded. The acid-soluble proteins were brought to a neutral pH by the addition of 20 µl of Neutralization Buffer (1 M Sodium phosphate, dibasic (pH 12.5), 2.5 mM DTT and 1 mM PMSF) and the neutralized lysates were analyzed by ELISA.
A 65 µl aliquot of each cell lysate was added to a well of a microwell strip, the microwells were sealed using tape and incubated either at 37°C for two hours or at 4°C overnight. After incubation, the tape was removed at the microwells were washed four times using 200 µl of 1X Wash Buffer. To each washed microwell, a 100 µl aliquot of an antitrimethyl histone H3 Lys27 Detection Antibody solution was added and the microwells were incubated at 37°C for one hour. The Detection Antibody solution was removed by aspiration and the wells were washed four times each using 200 µl of 1X Wash Buffer.
A 100 µl aliquot of an HRP-linked secondary antibody was added to each well, the wells were sealed with tape and incubated at 37°C for 30 min. The HRP-linked secondary antibody solution was removed by aspiration and the wells were washed four times using 200 µl of 1X Wash Buffer. A 100 µl aliquot of a TMB substrate was added to each well, the wells were sealed with tape and incubated at 37°C for 10 min or 25°C for 30 min. The reaction was stopped by the addition of 100 µl aliquot of a STOP solution and the plate was shaken briefly. The degree of histone H3 trimethylation was determined using a spectrophotometric readout by measuring the absorbance at 450 nm and then calculating the amount of trimethylated histone H3. A = ≤100 nM; B = >100 nM - ≤500 nM; C = >500 nM and N.D. = not determined.

[3] = test system: Karpas 422 cells; test: Karpas 422 cell viability, CTG (Cell Titre Glo) assay; type: cell-based, human; conditions: Homo sapiens; Inhibition of proliferation of Karpas 422 cells (EZH2 Y641N); viability measured Day 4, Day 7 or Day 11, time point of the tabulated values not stated
Method in brief: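 CellTiter-Glo viability IC50s taken at Day 4, Day 7 and Day 11 of continuous compound exposure (3-fold series, 10µM top, 1.5nM lowest) in RPMI/20% FBS at 37 °C. Y641N-mutant EZH2 lymphoma line seeded at 1000 cells per well; medium and compound replaced on Day 7 for Day 11 read.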

Sequence of purified human, His-tagged PRC2 complex (Q15910 whole entry): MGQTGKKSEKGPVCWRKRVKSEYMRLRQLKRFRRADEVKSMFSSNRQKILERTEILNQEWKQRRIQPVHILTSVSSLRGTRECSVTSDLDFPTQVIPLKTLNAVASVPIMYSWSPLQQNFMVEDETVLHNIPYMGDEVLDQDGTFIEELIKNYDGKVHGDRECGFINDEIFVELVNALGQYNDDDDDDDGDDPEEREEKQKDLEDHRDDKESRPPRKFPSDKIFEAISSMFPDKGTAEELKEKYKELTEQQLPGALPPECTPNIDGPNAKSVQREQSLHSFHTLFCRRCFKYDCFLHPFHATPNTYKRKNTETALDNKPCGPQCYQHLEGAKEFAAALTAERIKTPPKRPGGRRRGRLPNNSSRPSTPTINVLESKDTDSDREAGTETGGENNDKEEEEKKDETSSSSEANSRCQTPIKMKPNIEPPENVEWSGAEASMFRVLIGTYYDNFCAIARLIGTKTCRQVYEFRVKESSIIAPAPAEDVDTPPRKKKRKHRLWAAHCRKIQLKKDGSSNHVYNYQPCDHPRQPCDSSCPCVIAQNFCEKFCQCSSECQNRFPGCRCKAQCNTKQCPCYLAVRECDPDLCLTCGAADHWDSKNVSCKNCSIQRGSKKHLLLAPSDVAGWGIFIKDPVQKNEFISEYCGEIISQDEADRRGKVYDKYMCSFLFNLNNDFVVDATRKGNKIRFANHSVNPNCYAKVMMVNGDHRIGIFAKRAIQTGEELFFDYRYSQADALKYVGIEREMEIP
Sequence of purified human, His-tagged PRC2 complex (O75530 whole entry): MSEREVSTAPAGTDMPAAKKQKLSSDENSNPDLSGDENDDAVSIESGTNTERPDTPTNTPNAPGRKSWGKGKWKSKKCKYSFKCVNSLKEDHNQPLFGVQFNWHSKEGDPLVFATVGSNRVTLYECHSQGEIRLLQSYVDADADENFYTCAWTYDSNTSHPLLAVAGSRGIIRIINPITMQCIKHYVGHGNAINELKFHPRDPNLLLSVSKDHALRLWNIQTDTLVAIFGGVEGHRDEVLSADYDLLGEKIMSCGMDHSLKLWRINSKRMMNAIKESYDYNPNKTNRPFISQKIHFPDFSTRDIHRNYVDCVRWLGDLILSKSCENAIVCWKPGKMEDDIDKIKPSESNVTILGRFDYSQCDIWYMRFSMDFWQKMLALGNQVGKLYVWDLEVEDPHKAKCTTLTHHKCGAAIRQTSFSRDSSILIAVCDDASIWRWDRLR
Sequence of purified human, His-tagged PRC2 complex (Q15022 whole entry partner): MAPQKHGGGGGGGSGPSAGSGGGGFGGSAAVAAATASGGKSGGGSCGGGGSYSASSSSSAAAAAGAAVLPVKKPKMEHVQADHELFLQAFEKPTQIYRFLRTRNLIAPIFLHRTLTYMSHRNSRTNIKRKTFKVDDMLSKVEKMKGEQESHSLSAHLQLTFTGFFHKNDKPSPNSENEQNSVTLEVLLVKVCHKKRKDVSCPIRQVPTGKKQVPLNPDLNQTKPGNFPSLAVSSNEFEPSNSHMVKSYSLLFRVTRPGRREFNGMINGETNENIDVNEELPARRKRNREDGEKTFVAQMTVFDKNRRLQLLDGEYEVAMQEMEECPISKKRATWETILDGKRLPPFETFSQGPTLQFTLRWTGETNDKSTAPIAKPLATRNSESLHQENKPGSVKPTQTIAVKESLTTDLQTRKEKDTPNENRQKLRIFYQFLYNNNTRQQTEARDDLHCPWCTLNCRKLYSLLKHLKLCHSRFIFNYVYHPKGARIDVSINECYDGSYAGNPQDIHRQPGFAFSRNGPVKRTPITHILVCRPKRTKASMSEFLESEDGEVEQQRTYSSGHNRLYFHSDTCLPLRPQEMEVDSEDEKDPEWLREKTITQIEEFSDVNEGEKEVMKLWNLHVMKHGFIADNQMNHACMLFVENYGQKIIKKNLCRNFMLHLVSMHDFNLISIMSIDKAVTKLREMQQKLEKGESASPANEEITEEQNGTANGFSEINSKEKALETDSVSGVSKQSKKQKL
Sequence of purified human, His-tagged PRC2 complex (Q6ZN18 whole entry partner): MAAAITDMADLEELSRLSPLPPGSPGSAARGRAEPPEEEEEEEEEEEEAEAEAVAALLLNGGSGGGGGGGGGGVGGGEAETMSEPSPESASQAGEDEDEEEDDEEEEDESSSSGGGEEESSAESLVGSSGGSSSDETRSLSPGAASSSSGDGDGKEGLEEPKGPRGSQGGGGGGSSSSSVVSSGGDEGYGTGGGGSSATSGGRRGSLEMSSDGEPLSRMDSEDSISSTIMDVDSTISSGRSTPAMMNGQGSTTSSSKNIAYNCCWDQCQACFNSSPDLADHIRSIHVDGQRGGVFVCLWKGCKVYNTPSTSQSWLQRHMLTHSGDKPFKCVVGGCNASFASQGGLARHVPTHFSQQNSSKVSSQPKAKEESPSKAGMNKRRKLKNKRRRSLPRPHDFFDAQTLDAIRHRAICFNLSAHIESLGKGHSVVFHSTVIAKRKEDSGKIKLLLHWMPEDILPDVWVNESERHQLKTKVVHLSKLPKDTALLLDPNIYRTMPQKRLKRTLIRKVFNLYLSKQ
Sequence of purified human, His-tagged PRC2 complex (Q09028 whole entry partner): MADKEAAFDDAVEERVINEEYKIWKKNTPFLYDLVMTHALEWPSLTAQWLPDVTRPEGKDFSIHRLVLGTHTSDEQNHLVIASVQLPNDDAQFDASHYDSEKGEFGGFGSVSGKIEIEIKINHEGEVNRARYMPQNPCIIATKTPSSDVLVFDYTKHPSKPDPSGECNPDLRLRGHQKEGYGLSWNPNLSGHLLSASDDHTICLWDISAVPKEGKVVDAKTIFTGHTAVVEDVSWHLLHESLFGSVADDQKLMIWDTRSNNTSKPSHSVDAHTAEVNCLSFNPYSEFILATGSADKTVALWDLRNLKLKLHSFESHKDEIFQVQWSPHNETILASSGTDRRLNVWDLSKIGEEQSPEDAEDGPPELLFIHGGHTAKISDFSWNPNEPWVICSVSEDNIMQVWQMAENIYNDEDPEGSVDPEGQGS

SMILES | IC50 [1] | IC50 [2] | IC50 [3]
N#Cc1cn2c(NCc3c(F)ccc4c3CCO4)ncc(-c3ccc(CN4CC5CC5C4)cc3)c2n1 (centres unmarked) [Example 52, 8-(4-((3-azabicyclo[3.1.0]hexan-3-yl)methyl)phenyl)-5-(((5-fluoro-2,3-dihydrobenzofuran-4-yl)methyl)amino)imidazo[1,2-c]pyrimidine-2-carbonitrile] | < 100 nM | ≤ 100 nM | 
COc1cc(-c2cnc(NCc3c(F)ccc4c3CCO4)n3cc(C#N)nc23)c(F)cn1 [Example 123, 5-(((5-fluoro-2,3-dihydrobenzofuran-4-yl)methyl)amino)-8-(5-fluoro-2-methoxypyridin-4-yl)imidazo[1,2-c]pyrimidine-2-carbonitrile] | < 100 nM | ≤ 100 nM | 
N#Cc1cn2c(NCc3c(F)ccc4c3CCO4)ncc(-c3ccc(CN4CC(F)(F)C4)cc3)c2n1 [Example 51, 8-(4-((3,3-difluoroazetidin-1-yl)methyl)phenyl)-5-(((5-fluoro-2,3-dihydrobenzofuran-4-yl)methyl)amino)imidazo[1,2-c]pyrimidine-2-carbonitrile] | < 100 nM | ≤ 100 nM | 
Cn1nc(C(F)(F)F)cc1-c1cnc(NCc2c(F)ccc3c2CCO3)n2cc(C#N)nc12 [Example 111, 5-(((5-fluoro-2,3-dihydrobenzofuran-4-yl)methyl)amino)-8-(1-methyl-3-(trifluoromethyl)-1H-pyrazol-5-yl)imidazo[1,2-c]pyrimidine-2-carbonitrile] | < 100 nM | ≤ 100 nM | 
Cc1ccc(C#N)cc1-c1cnc(NCc2c(F)ccc3c2CCO3)n2cc(C#N)nc12 [Example 177, 8-(5-cyano-2-methylphenyl)-5-(((5-fluoro-2,3-dihydrobenzofuran-4-yl)methyl)amino)imidazo[1,2-c]pyrimidine-2-carbonitrile] | 100 to 500 nM | 100 to 500 nM | 
CN(C)Cc1ccc(-c2cnc(NCc3c(F)ccc4c3CCO4)n3cc(C#N)nc23)cc1F [Example 63, 8-(4-((dimethylamino)methyl)-3-fluorophenyl)-5-(((5-fluoro-2,3-dihydrobenzofuran-4-yl)methyl)amino)imidazo[1,2-c]pyrimidine-2-carbonitrile] | < 100 nM | ≤ 100 nM | 
CC(c1ccc(-c2cnc(NCc3c(F)ccc4c3CCO4)n3cc(C#N)nc23)cc1)N1CCCC1 (centres unmarked) [Example 90, 5-(((5-fluoro-2,3-dihydrobenzofuran-4-yl)methyl)amino)-8-(4-(1-(pyrrolidin-1-yl)ethyl)phenyl)imidazo[1,2-c]pyrimidine-2-carbonitrile] | < 100 nM | ≤ 100 nM | 
N#Cc1cn2c(NCc3c(F)ccc4c3CCO4)ncc(-c3cccnc3CO)c2n1 [Example 148, 5-(((5-fluoro-2,3-dihydrobenzofuran-4-yl)methyl)amino)-8-(2-(hydroxymethyl)pyridin-3-yl)imidazo[1,2-c]pyrimidine-2-carbonitrile] | < 100 nM | 100 to 500 nM | 
Cn1nncc1-c1cnc(NCc2c(F)ccc3c2CCO3)n2cc(C#N)nc12 [Example 143, 5-(((5-fluoro-2,3-dihydrobenzofuran-4-yl)methyl)amino)-8-(1-methyl-1H-1,2,3-triazol-5-yl)imidazo[1,2-c]pyrimidine-2-carbonitrile] | < 100 nM | ≤ 100 nM | 
CN1CCN(C(=O)c2ccc(-c3cnc(NCc4c(F)ccc5c4CCO5)n4cc(C#N)nc34)cc2)CC1 [Example 115, 5-(((5-fluoro-2,3-dihydrobenzofuran-4-yl)methyl)amino)-8-(4-(4-methylpiperazine-1-carbonyl)phenyl)imidazo[1,2-c]pyrimidine-2-carbonitrile] | < 100 nM |  | ≤ 250 nM
Cc1nn(C(C)C)cc1-c1cnc(NCc2c(F)ccc3c2CCO3)n2cc(C(N)=O)nc12 [Example 13, 5-(((5-fluoro-2,3-dihydrobenzofuran-4-yl)methyl)amino)-8-(1-isopropyl-3-methyl-1H-pyrazol-4-yl)imidazo[1,2-c]pyrimidine-2-carboxamide] | < 100 nM |  | 250 to 500 nM
N#Cc1cn2c(NCc3c(F)ccc4c3CCO4)ncc(-c3cccnc3C(F)F)c2n1 [Example 64, 8-(2-(difluoromethyl)pyridin-3-yl)-5-(((5-fluoro-2,3-dihydrobenzofuran-4-yl)methyl)amino)imidazo[1,2-c]pyrimidine-2-carbonitrile] | < 100 nM |  | 250 to 500 nM
N#Cc1cn2c(NCc3c(F)ccc4c3CCO4)ncc(-c3cnn(C4CCCCO4)c3)c2n1 (centres unmarked) [Example 118, 5-(((5-fluoro-2,3-dihydrobenzofuran-4-yl)methyl)amino)-8-(1-(tetrahydro-2H-pyran-2-yl)-1H-pyrazol-4-yl)imidazo[1,2-c]pyrimidine-2-carbonitrile] | < 100 nM |  | > 500 nM
Cc1nn(C)cc1-c1cnc(NCc2c(F)ccc3c2CCO3)n2cc(C#N)nc12 [Example 72, 8-(1,3-dimethyl-1H-pyrazol-4-yl)-5-(((5-fluoro-2,3-dihydrobenzofuran-4-yl)methyl)amino)imidazo[1,2-c]pyrimidine-2-carbonitrile] | < 100 nM |  | > 500 nM
Cc1cc(-c2cnc(NCc3c(F)ccc4c3CCO4)n3cc(C(=O)N(C)C)nc23)n(C)n1 [Example 21, 8-(1,3-dimethyl-1H-pyrazol-5-yl)-5-(((5-fluoro-2,3-dihydrobenzofuran-4-yl)methyl)amino)-N,N-dimethylimidazo[1,2-c]pyrimidine-2-carboxamide] | > 500 nM |  | ≤ 250 nM
Cc1cc(C(=O)N(C)C)ccc1-c1cnc(NCc2c(F)ccc3c2CCO3)n2cc(C#N)nc12 [Example 44, 4-(2-cyano-5-(((5-fluoro-2,3-dihydrobenzofuran-4-yl)methyl)amlno)lmldazo[1,2-c]pyrlmldln-8-yl)-N,N,3-trimethylbenzamide] | < 100 nM |  | ≤ 250 nM
Cn1nccc1-c1cnc(NCc2c(F)ccc3c2CCO3)n2cc(C#N)nc12 [Example 114, 5-(((5-fluoro-2,3-dihydrobenzofuran-4-yl)methyl)amino)-8-(1-methyl-1H-pyrazol-5-yl)imidazo[1,2-c]pyrimidine-2-carbonitrile] | < 100 nM |  | ≤ 250 nM
N#Cc1cn2c(NCc3c(F)ccc4c3CCO4)ncc(-c3ccc(CN4CCC(F)C4)cc3)c2n1 (centres unmarked) [Example 54, 5-(((5-fluoro-2,3-dihydrobenzofuran-4-yl)methyl)amino)-8-(4-((3-fluoropyrrolidin-1-yl)methyl)phenyl)imidazo[1,2-c]pyrimidine-2-carbonitrile] | < 100 nM |  | ≤ 250 nM
COC1CCN(Cc2ccc(-c3cnc(NCc4c(F)ccc5c4CCO5)n4cc(C#N)nc34)cc2)C1 (centres unmarked) [Example 53, 5-(((5-fluoro-2,3-dihydrobenzofuran-4-yl)methyl)amino)-8-(4-((3-methoxypyrrolidin-1-yl)methyl)phenyl)imidazo[1,2-c]pyrimidine-2-carbonitrile] | < 100 nM |  | ≤ 250 nM
